Reference: ChEMBL document CHEMBL1201862, “PubChem BioAssay data set” (2004)
Several values for one entry are separate records, joined by “and”; a condition that tells them apart may be missing. Equal values may be shown once.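 Grown in 96-well plates, cells were treated for 48 hours with each compound at five concentrations. Insufficient inhibition: endpoint recorded as highest concentration tested. GI50 is the concentration that inhibits growth by half.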 Activity calls are given as the source filed them. Rule as the data show it: active = GI50 up to about 1.1 µM and inactive = higher. Non-standard residues stand in square brackets, D forms with d. Residues, ends and D or L forms follow the SMILES beside them. *: point of attachment. hSer = N[CH](CCO)C(=O)O; Boc = CC(C)(C)OC(=O)*

Assays:
Assay in all cases: growth of human tumour cells (NCI), 48 h
[1] = tested on: SK-MEL-28
[2] = tested on: LOX IMVI
[3] = tested on: NCI-H522
[4] = tested on: Malme-3M
[5] = tested on: 786-0
[6] = tested on: HCT-116
[7] = tested on: SNB-78
[8] = tested on: RPMI-8226
[9] = tested on: SK-MEL-5
[10] = tested on: A549
[11] = tested on: A498
[12] = tested on: SK-OV-3
[13] = tested on: NCI-H460
[14] = tested on: KM12
[15] = tested on: U-251
[16] = tested on: SNB-19
[17] = tested on: TK-10
[18] = tested on: PC-3
[19] = tested on: T47D
[20] = tested on: DU-145

Measured: GI50

C\C=C/C=C/C=C/C(=O)O
inactive: [1] > 100 µM | [2] > 100 µM | [3] > 100 µM | [4] > 100 µM | [5] > 100 µM | [6] > 100 µM | [7] > 100 µM | [8] > 100 µM | [9] > 100 µM | [10] > 100 µM | [11] > 100 µM | [12] > 100 µM | [13] > 100 µM | [14] > 100 µM | [15] > 100 µM | [16] > 100 µM

COc1c(O)c2c3c(c(C)cc(O)c3c1O)C(=O)C(O)(C(C)(C)C(C)=O)C2=O (stereo not drawn)
inactive: [17] > 100 µM | [1] > 100 µM | [4] > 100 µM | [5] > 100 µM | [6] > 100 µM | [7] 71.8 µM | [8] > 100 µM and 82.2 µM | [9] 77.1 µM | [10] > 100 µM | [12] > 100 µM | [13] > 100 µM | [14] > 100 µM | [15] > 100 µM | [16] > 100 µM

O=C(c1ccccc1)C1N=NN(Cc2ccccc2[N+](=O)[O-])C1C(=O)c1ccccc1 (stereo not drawn)
inactive: [17] > 100 µM | [1] > 100 µM | [2] > 100 µM | [3] > 100 µM | [4] > 100 µM | [5] > 100 µM | [6] > 100 µM | [7] > 100 µM | [8] > 100 µM | [9] > 100 µM | [10] 37.8 µM | [12] 87.3 µM | [13] > 100 µM | [14] > 100 µM | [15] > 100 µM | [16] > 100 µM

CC1(O)CC2C(CC1SC1CC3C(CC1(C)O)C3(C)C)C2(C)C (stereo not drawn)
inactive: [17] 69.7 µM | [1] > 100 µM | [4] 29.6 µM | [5] 43.6 µM | [6] 44.8 µM | [7] 73.3 µM | [8] 41.9 µM | [9] 11.6 µM | [10] 50.8 µM | [12] 54.7 µM | [13] 30.7 µM | [14] 46.8 µM | [15] 41.6 µM

CC1=C(C(=O)NCc2ccccc2)C(c2ccc(Cl)c(Cl)c2)C(C(=O)NCc2ccccc2)=C(C)N1
inactive: [17] > 100 µM | [1] > 100 µM | [2] > 100 µM | [3] > 100 µM | [4] > 100 µM | [5] > 100 µM | [6] > 100 µM | [7] > 100 µM | [8] > 100 µM | [9] > 100 µM | [10] > 100 µM | [11] > 100 µM | [13] > 100 µM | [14] > 100 µM | [15] > 100 µM | [16] > 100 µM

O=C1C2C(C(=O)N1c1ccccc1)C1([N+](=O)[O-])C=C3c4ccccc4N(C(=O)c4ccccc4)C32C2C(=O)N(c3ccccc3)C(=O)C21 (stereo not drawn)
inactive: [17] > 100 µM | [1] > 100 µM | [2] > 100 µM | [3] > 100 µM | [4] > 100 µM | [5] > 100 µM | [6] > 100 µM | [7] > 100 µM | [10] > 100 µM | [11] > 100 µM | [12] > 100 µM | [13] > 100 µM | [14] > 100 µM | [15] > 100 µM | [16] > 100 µM

CC(=O)Oc1ccc(Nn2c3ccccc3c3ccccc32)c(C)c1
inactive: [17] 39.3 µM | [1] 67.6 µM | [2] > 10 µM | [3] 19.3 µM | [4] 28.6 µM | [5] 20.6 µM | [6] 35.7 µM | [7] 39.4 µM | [8] 15.7 µM | [9] 39.2 µM | [10] 56.8 µM | [12] 40.9 µM | [13] 27.7 µM | [14] 36.6 µM | [15] 46 µM | [16] 78.7 µM

CC(C)N(C(=O)C12C3C4C1C1C2C3C41I)C(C)C (stereo not drawn)
inactive: [17] > 100 µM | [1] > 100 µM | [3] > 100 µM | [4] > 100 µM | [5] > 100 µM | [6] > 100 µM | [7] > 100 µM | [9] > 100 µM | [10] > 100 µM | [11] > 100 µM | [12] > 100 µM | [13] > 100 µM | [14] > 100 µM | [16] > 100 µM

COC(=O)C1=C(O)c2cc3c(cc2[C@H](c2cc(OC)c(OC)c(OC)c2)C1)OCO3
inactive: [17] 34.4 µM | [1] 39.2 µM | [2] 30.5 µM | [4] 38.1 µM | [5] 58.5 µM | [6] 55.3 µM | [7] 87.1 µM | [8] 23 µM | [9] 20.8 µM | [10] 57.5 µM | [11] 22.5 µM | [12] > 100 µM | [13] 34 µM | [14] 23.3 µM | [15] 44.5 µM | [16] > 100 µM

CCN(c1n[n+]2c(-c3ccccc3)csc2s1)c1n[n+]2c(-c3ccccc3)csc2s1
inactive: [17] > 100 µM | [1] 79.1 µM | [2] 57.9 µM | [3] 35.6 µM | [4] 23.3 µM | [5] > 100 µM | [6] 19.3 µM | [7] > 100 µM | [8] 29.6 µM | [9] 38 µM | [10] > 100 µM | [12] > 100 µM | [13] 53.1 µM | [14] 30.8 µM | [15] > 100 µM | [16] > 100 µM

CN1C(=O)C(=CN(C)c2ccccc2)C(=O)N(C)C1=O
inactive: [17] > 100 µM | [1] > 100 µM | [2] > 100 µM | [4] 36.9 µM | [5] > 100 µM | [6] > 100 µM | [7] > 100 µM | [8] > 100 µM | [9] > 100 µM | [10] > 100 µM | [11] 95.7 µM | [13] > 100 µM | [14] > 100 µM | [15] > 100 µM | [16] > 100 µM

Fc1cccc(/C=N/C23CC4CC(CC(C4)C2)C3)c1
inactive: [17] > 100 µM | [1] > 100 µM | [2] > 100 µM | [3] > 100 µM | [4] > 100 µM | [5] > 100 µM | [6] > 100 µM | [7] > 100 µM | [8] > 100 µM | [11] > 100 µM | [12] > 100 µM | [13] > 100 µM | [14] > 100 µM | [15] > 100 µM | [16] > 100 µM

COc1ccc(C2ON(c3cccc(C)n3)CC=C2C)cc1 (stereo not drawn)
inactive: [1] 23.7 µM | [2] 41.5 µM | [3] 19.2 µM | [4] 36.6 µM | [5] 44.7 µM | [7] 37.4 µM | [8] 30.9 µM | [9] 17.6 µM | [10] 40.7 µM | [12] 97.9 µM | [13] 67.9 µM | [14] 36.3 µM | [15] 32.4 µM | [16] 97.1 µM

Nc1ncnc2nn(C3OC(CO)C(O)C3O)nc12 (stereo not drawn)
inactive: [17] 3.56 µM | [1] 36.6 µM | [18] 17.3 µM | [2] 6.32 µM | [3] 6.82 µM | [4] 20.5 µM | [5] 10.4 µM | [19] 4.21 µM | [6] 7.87 µM | [8] 3.64 µM | [9] 12.8 µM | [10] 9.16 µM | [20] 5.26 µM | [11] 10.2 µM | [12] 2.67 µM | [13] 4.09 µM | [14] 10.1 µM | [15] 23.1 µM | [16] 29.6 µM

CC1(Cl)CC(C)(/C=C/Cl)C(Cl)CC1Cl (stereo not drawn)
inactive: [17] 26.1 µM | [1] 15 µM | [3] 16.7 µM | [4] 14.9 µM | [5] 15.4 µM | [6] 10.1 µM | [7] 20.9 µM | [9] 14 µM | [10] 14 µM | [11] 19.2 µM | [12] 38.4 µM | [13] 14.2 µM | [14] 16.6 µM | [15] 16.9 µM | [16] 17.4 µM

COCCC(NC(=O)C(CC(C)C)NC(=O)OC(C)(C)C)C(N)=O (stereo not drawn) (Boc-Leu-[hSer](Me)-NH2; configuration not given here)
inactive: [17] > 100 µM | [1] > 100 µM | [18] > 100 µM | [2] > 100 µM | [3] > 100 µM | [4] > 100 µM | [5] > 100 µM | [19] > 100 µM | [6] > 100 µM | [8] > 100 µM | [9] > 100 µM | [10] > 100 µM | [20] > 100 µM | [11] > 100 µM | [12] > 100 µM | [13] > 100 µM | [14] > 100 µM | [15] > 100 µM | [16] > 100 µM

O=C1/C(=C/c2ccc(Cl)cc2)N=C(c2ccccc2)N1c1nc2ccc(Sc3ccccc3)cc2[nH]1
inactive: [17] 23.8 µM | [1] 23.4 µM | [18] 30.6 µM | [2] 23.9 µM | [3] 22.4 µM | [4] 23.4 µM | [5] 25.9 µM | [19] 23.1 µM | [6] 24.2 µM | [8] 19.7 µM | [9] 15.5 µM | [10] 36.1 µM | [20] 35.3 µM | [11] 19.8 µM | [12] 41.4 µM | [13] 22.7 µM | [14] 20.7 µM | [15] 31.3 µM | [16] 37.6 µM
